Laboratory results from the NIST ThermoML archive (doi:10.1021/acs.jced.6b00350).
Values joined by “and” are separate entries in the source; they are usually repeats but may differ in a detail not shown here. Equal entries are not always repeated.

Conditions: Liquid, Hot wire method

FC(F)CC(F)(F)F [1,1,1,3,3-pentafluoropropane]
Conditions	thermal conductivity
302.4 K, 9755 kPa	0.09135 W/m/K
302.4 K, 43574 kPa	0.104 W/m/K
302.41 K, 9754 kPa	0.09128 W/m/K
302.43 K, 27824 kPa	0.09846 W/m/K
302.43 K, 35521 kPa	0.1012 W/m/K
302.43 K, 35524 kPa	0.1013 W/m/K
302.44 K, 27822 kPa	0.09861 W/m/K
302.47 K, 4917 kPa	0.08905 W/m/K
302.47 K, 4920 kPa	0.08908 W/m/K
302.49 K, 21586 kPa	0.09609 W/m/K
302.49 K, 21587 kPa	0.09598 W/m/K
302.51 K, 297 kPa	0.08675 W/m/K
302.52 K, 295 kPa	0.08688 W/m/K
302.57 K, 15359 kPa	0.09341 W/m/K
302.57 K, 15368 kPa	0.0935 W/m/K
302.68 K, 68021 kPa	0.1116 W/m/K
302.68 K, 68023 kPa	0.1115 W/m/K
302.69 K, 62436 kPa	0.1101 W/m/K
302.7 K, 62429 kPa	0.1097 W/m/K
302.76 K, 52483 kPa	0.107 W/m/K
302.76 K, 52489 kPa	0.1069 W/m/K
302.81 K, 43572 kPa	0.104 W/m/K
302.82 K, 43572 kPa	0.1041 W/m/K
302.85 K, 35512 kPa	0.1012 W/m/K
302.85 K, 35521 kPa	0.1013 W/m/K
302.87 K, 9749 kPa	0.09105 W/m/K
302.87 K, 9754 kPa	0.091 W/m/K
302.88 K, 27813 kPa	0.09844 W/m/K
302.88 K, 27817 kPa	0.09814 W/m/K
302.93 K, 4918 kPa	0.08893 W/m/K
302.93 K, 4920 kPa	0.0888 W/m/K
302.94 K, 21581 kPa	0.09604 W/m/K
302.94 K, 21589 kPa	0.09618 W/m/K
302.99 K, 297 kPa	0.08639 W/m/K
302.99 K, 298 kPa	0.08647 W/m/K
303.03 K, 15369 kPa	0.09337 W/m/K
303.04 K, 15370 kPa	0.09341 W/m/K
303.11 K, 68011 kPa	0.1115 W/m/K
303.12 K, 68009 kPa	0.1114 W/m/K
303.13 K, 62430 kPa	0.11 W/m/K
303.13 K, 62436 kPa	0.11 W/m/K
303.21 K, 52481 kPa	0.1068 W/m/K
303.21 K, 52487 kPa	0.1068 W/m/K
303.27 K, 43574 kPa	0.104 W/m/K
303.27 K, 43576 kPa	0.1041 W/m/K
303.33 K, 35513 kPa	0.1011 W/m/K
303.33 K, 35514 kPa	0.1012 W/m/K
303.36 K, 9753 kPa	0.09097 W/m/K
303.36 K, 9758 kPa	0.09104 W/m/K
303.36 K, 27804 kPa	0.0984 W/m/K
303.37 K, 27811 kPa	0.09842 W/m/K
303.44 K, 4916 kPa	0.08869 W/m/K
303.44 K, 4920 kPa	0.08879 W/m/K
303.44 K, 21579 kPa	0.09595 W/m/K
303.44 K, 21587 kPa	0.09607 W/m/K
303.51 K, 294 kPa	0.08655 W/m/K
303.51 K, 297 kPa	0.08645 W/m/K
303.54 K, 15365 kPa	0.09343 W/m/K
303.54 K, 15366 kPa	0.09328 W/m/K
321.62 K, 4352 kPa	0.08273 W/m/K
321.63 K, 4356 kPa	0.08308 W/m/K
321.64 K, 337 kPa	0.08036 W/m/K
321.65 K, 338 kPa	0.08047 W/m/K
321.65 K, 69905 kPa	0.1085 W/m/K
321.65 K, 69906 kPa	0.1083 W/m/K
321.68 K, 58591 kPa	0.1047 W/m/K
321.68 K, 58592 kPa	0.1049 W/m/K
321.69 K, 40553 kPa	0.09923 W/m/K
321.7 K, 40558 kPa	0.09918 W/m/K
321.7 K, 49855 kPa	0.1015 W/m/K
321.7 K, 49873 kPa	0.1019 W/m/K
321.71 K, 33193 kPa	0.0964 W/m/K
321.71 K, 33197 kPa	0.09631 W/m/K
321.73 K, 26150 kPa	0.09344 W/m/K
321.73 K, 26151 kPa	0.093 W/m/K
321.74 K, 19697 kPa	0.09044 W/m/K
321.76 K, 19703 kPa	0.09051 W/m/K
321.77 K, 13835 kPa	0.08752 W/m/K
321.78 K, 13839 kPa	0.08772 W/m/K
321.81 K, 8795 kPa	0.08531 W/m/K
321.82 K, 8794 kPa	0.08538 W/m/K
322.02 K, 69892 kPa	0.1082 W/m/K
322.02 K, 69896 kPa	0.1083 W/m/K
322.06 K, 58582 kPa	0.1049 W/m/K
322.06 K, 58584 kPa	0.105 W/m/K
322.07 K, 4350 kPa	0.08295 W/m/K
322.07 K, 4352 kPa	0.08313 W/m/K
322.08 K, 49847 kPa	0.1021 W/m/K
322.09 K, 40542 kPa	0.09897 W/m/K
322.09 K, 49848 kPa	0.1021 W/m/K
322.1 K, 332 kPa	0.08025 W/m/K
322.1 K, 40546 kPa	0.09896 W/m/K
322.11 K, 332 kPa	0.08034 W/m/K
322.11 K, 33198 kPa	0.09595 W/m/K
322.12 K, 33200 kPa	0.09642 W/m/K
322.14 K, 26147 kPa	0.09346 W/m/K
322.15 K, 26148 kPa	0.09328 W/m/K
322.18 K, 19689 kPa	0.09041 W/m/K
322.18 K, 19694 kPa	0.09034 W/m/K
322.23 K, 13831 kPa	0.08764 W/m/K
322.23 K, 13837 kPa	0.08773 W/m/K
322.27 K, 8791 kPa	0.08514 W/m/K
322.27 K, 8795 kPa	0.08522 W/m/K
322.42 K, 69875 kPa	0.1077 W/m/K
322.42 K, 69881 kPa	0.1077 W/m/K
322.47 K, 58570 kPa	0.1047 W/m/K
322.48 K, 58576 kPa	0.1046 W/m/K
322.51 K, 49828 kPa	0.1017 W/m/K
322.51 K, 49834 kPa	0.1019 W/m/K
322.53 K, 40525 kPa	0.09861 W/m/K
322.53 K, 40531 kPa	0.09882 W/m/K
322.56 K, 4352 kPa	0.0827 W/m/K and 0.08272 W/m/K
322.56 K, 33194 kPa	0.09577 W/m/K and 0.09565 W/m/K
322.6 K, 328 kPa	0.08026 W/m/K
322.61 K, 332 kPa	0.08024 W/m/K
322.61 K, 26147 kPa	0.09305 W/m/K
322.61 K, 26148 kPa	0.09299 W/m/K
322.65 K, 19690 kPa	0.0904 W/m/K
322.66 K, 19689 kPa	0.09023 W/m/K
322.71 K, 13830 kPa	0.08772 W/m/K
322.72 K, 13830 kPa	0.08785 W/m/K
322.76 K, 8791 kPa	0.08512 W/m/K
322.77 K, 8793 kPa	0.08496 W/m/K
322.85 K, 69859 kPa	0.1077 W/m/K
322.86 K, 69861 kPa	0.1078 W/m/K
322.92 K, 58557 kPa	0.1047 W/m/K
322.92 K, 58569 kPa	0.1047 W/m/K
322.96 K, 49820 kPa	0.1018 W/m/K
322.97 K, 49830 kPa	0.1018 W/m/K
323 K, 40517 kPa	0.09874 W/m/K
323 K, 40525 kPa	0.09862 W/m/K
323.04 K, 33192 kPa	0.0959 W/m/K
323.05 K, 33192 kPa	0.09594 W/m/K
323.09 K, 4348 kPa	0.08267 W/m/K
323.1 K, 4349 kPa	0.08248 W/m/K
323.1 K, 26147 kPa	0.09286 W/m/K
323.11 K, 26150 kPa	0.09307 W/m/K
323.15 K, 332 kPa	0.0802 W/m/K
